Data on 11 compounds can be found in PubChem BioAssay (NCI).

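Where inhibition never reached the appropriate level, the endpoint shown equals the highest concentration tested. Otherwise, values were interpolated linearly from a five-concentration, 48-hour dose response in 96-well plates. GI50 marks 50% less growth. TGI: concentration producing complete growth inhibition.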

Test systems include A549 NSCLC; ACHN renal; COLO 205 colon; HOP-62 NSCLC; MCF7 breast; SK-MEL-2 melanoma; SR leukemia.
What all share (experiment): growth of human tumour cells (NCI), 48 h

On to `CC(C)(C)c1ccc(C2CC(=O)C3=C(C2)Nc2ccccc2N(C(=O)c2ccccc2Cl)C3c2ccc(F)cc2)cc1` (stereo unspecified), for which the GI50 in the test on A549 NSCLC, in the test with ACHN renal, in the test on COLO 205 colon, in the test with HOP-62 NSCLC and in the test with MCF7 breast was greater than 100 µM throughout. Also, the TGI with A549 NSCLC, in the test with ACHN renal, in the test on COLO 205 colon, in the test with HOP-62 NSCLC and in the test with MCF7 breast was greater than 100 µM each time.
As to `COc1ccc(Nc2ncnc3ccc(-c4cncc(NS(C)(=O)=O)c4)cc23)cc1Cl`, the GI50 is 5.18 µM in the test with A549 NSCLC; 4.92 µM with ACHN renal; 1.8 µM in the test with COLO 205 colon; 2.64 µM with HOP-62 NSCLC; 1.63 µM in the test with MCF7 breast; 1.02 µM in the test with SK-MEL-2 melanoma. Also, the GI50 in the test on SR leukemia is 1.42 µM. Moreover, the TGI in the test on A549 NSCLC was 22.9 µM; in the test on ACHN renal, greater than 100 µM; in the test with COLO 205 colon, 4.47 µM; in the test on HOP-62 NSCLC, 22.6 µM; in the test on MCF7 breast it was 8.01 µM; with SK-MEL-2 melanoma, 2.67 µM. In addition, the TGI with SR leukemia worked out at 5.86 µM.
With `CC(C)[P+](c1ccccc1)(c1ccccc1)c1ccccc1`, the GI50 in the test on A549 NSCLC is 5.07 µM; in the test on ACHN renal, 86.8 µM; with COLO 205 colon it was 3.87 µM; in the test with HOP-62 NSCLC, 19 µM; in the test on MCF7 breast, 3.69 µM; with SK-MEL-2 melanoma it was 3.77 µM. In addition, the GI50 with SR leukemia was 3.05 µM. The TGI with A549 NSCLC is greater than 100 µM; in the test on ACHN renal it was greater than 100 µM; with COLO 205 colon it was 16 µM; with HOP-62 NSCLC, greater than 100 µM; in the test on MCF7 breast, greater than 100 µM; in the test on SK-MEL-2 melanoma, 21.9 µM. The compound further displayed a TGI in the test on SR leukemia greater than 100 µM.
As for `Cc1c(Nc2nccc3cc(CN4CC[C@@H](O)C4)cnc23)cccc1-c1cccc(-c2nc3cc(CN4CC[C@@H](C(=O)O)C4)cc(C#N)c3o2)c1C`, the GI50 in the test on A549 NSCLC is 5.33 µM; in the test with ACHN renal, 91.7 µM; in the test on COLO 205 colon, 18.7 µM; in the test on HOP-62 NSCLC, greater than 100 µM; with MCF7 breast, 1.52 µM; with SK-MEL-2 melanoma it was greater than 100 µM. In the test with SR leukemia, the GI50 is 2.95 µM. The TGI in the test with A549 NSCLC is 19.1 µM; with ACHN renal it was greater than 100 µM; with COLO 205 colon, greater than 100 µM; with HOP-62 NSCLC it was greater than 100 µM; in the test with MCF7 breast it was 4.26 µM; in the test on SK-MEL-2 melanoma, greater than 100 µM. For the same compound, in the test with SR leukemia, the TGI worked out at 24.7 µM.
Take `CN1CCN(C(=O)c2ccc(NC(=O)Nc3ccc(-c4nc(N5CCOCC5)c5cccn5n4)cc3)cc2)CC1`: the GI50 with A549 NSCLC was 0.0606 µM; in the test on ACHN renal, 0.279 µM; in the test on COLO 205 colon it was 0.0414 µM; in the test with HOP-62 NSCLC, 0.025 µM; in the test with MCF7 breast it was less than 0.012 µM; in the test on SK-MEL-2 melanoma, 0.0596 µM. For the same compound, in the test on SR leukemia, the GI50 is 0.0465 µM. The TGI in the test with A549 NSCLC was found to be 12.1 µM; in the test on ACHN renal it was 12.8 µM; in the test on COLO 205 colon, 1.38 µM; in the test with HOP-62 NSCLC, 0.232 µM; in the test on MCF7 breast, 2.73 µM; in the test on SK-MEL-2 melanoma, 1.39 µM. Further, the TGI in the test on SR leukemia is 8.7 µM.
For `NC1=NC(SCc2ccccc2CCl)c2ncn(Cc3ccccc3CCl)c2N1` (stereo unspecified), the GI50 is 2.04 µM with A549 NSCLC; 2.07 µM in the test on ACHN renal; 1.64 µM in the test on COLO 205 colon; 1.53 µM with HOP-62 NSCLC; 2.17 µM with MCF7 breast; 2.06 µM in the test with SK-MEL-2 melanoma. The GI50 in the test with SR leukemia is 1.56 µM. For the same compound, the TGI worked out at 5.01 µM with A549 NSCLC; 5.45 µM in the test with ACHN renal; 3.49 µM in the test with COLO 205 colon; 3.16 µM with HOP-62 NSCLC; 19.9 µM with MCF7 breast; 4.89 µM with SK-MEL-2 melanoma. The compound also returned a TGI in the test on SR leukemia of 6.46 µM.
With `CCN1CCN(c2cc(C(=O)Nc3cccc(Nc4ccc5c(OC)cccc5n4)c3)cc(C(F)(F)F)c2)CC1`, the GI50 in the test on A549 NSCLC is 1.05 µM; in the test with ACHN renal, 1.21 µM; in the test with COLO 205 colon, 0.654 µM; in the test with HOP-62 NSCLC it was 1.02 µM; with MCF7 breast it was 0.679 µM; with SK-MEL-2 melanoma, 5.3 µM. In the test on SR leukemia, the GI50 is 0.883 µM. The TGI in the test on A549 NSCLC turned out to be 5.28 µM; with ACHN renal it was 4.97 µM; in the test with COLO 205 colon, 1.49 µM; in the test on HOP-62 NSCLC it was 4.04 µM; in the test on MCF7 breast it was 2.28 µM; with SK-MEL-2 melanoma, 11 µM. The TGI with SR leukemia turned out to be 11.7 µM.
With `Nc1c(C(=O)c2cccc(C(O)CO)c2)cnn1-c1ccc(F)cc1` (stereo unspecified), the GI50 with A549 NSCLC, in the test with ACHN renal, in the test on COLO 205 colon, with HOP-62 NSCLC, in the test on MCF7 breast and with SK-MEL-2 melanoma was greater than 25 µM each time. Moreover, the GI50 in the test with SR leukemia is greater than 25 µM. The TGI in the test with A549 NSCLC, with ACHN renal, in the test on COLO 205 colon, with HOP-62 NSCLC, in the test on MCF7 breast and in the test on SK-MEL-2 melanoma was greater than 25 µM throughout. Moreover, in the test on SR leukemia, the TGI was greater than 25 µM.
As for `COC(=O)CC1(O)C=CC(=O)C=C1`, the TGI in the test on A549 NSCLC was found to be 39.4 µM; with ACHN renal, 9.79 µM; with COLO 205 colon, 17.8 µM; in the test on HOP-62 NSCLC, 18.1 µM; in the test on MCF7 breast, 15.2 µM; in the test on SK-MEL-2 melanoma, 14.6 µM. For the same compound, the TGI in the test on SR leukemia is greater than 100 µM.
Consider `OCCCCC#Cc1ccccc1C#Cc1cccnc1`, for which the GI50 in the test on A549 NSCLC was 25.5 µM; with ACHN renal, 28.3 µM; in the test on COLO 205 colon it was 28.4 µM; in the test on HOP-62 NSCLC, 20 µM; in the test on MCF7 breast, 67.5 µM; with SK-MEL-2 melanoma, 87.9 µM. The TGI was 80.2 µM with A549 NSCLC; greater than 100 µM in the test with ACHN renal; 94.4 µM in the test on COLO 205 colon; 57.4 µM with HOP-62 NSCLC; greater than 100 µM in the test with MCF7 breast; greater than 100 µM with SK-MEL-2 melanoma.
Consider `Nc1nc(Cl)nc2c1ncn2C1OC(CO)C(O)C1F` (stereo unspecified), for which the GI50 in the test with A549 NSCLC was 0.144 µM; in the test on ACHN renal, 0.169 µM; in the test with COLO 205 colon, 0.0951 µM; in the test with HOP-62 NSCLC, 0.109 µM; with MCF7 breast, 0.163 µM; in the test with SK-MEL-2 melanoma, greater than 100 µM. Also, in the test on SR leukemia, the GI50 is 1.67 µM. In addition, the TGI is greater than 100 µM with A549 NSCLC; greater than 21.2 µM in the test on ACHN renal; greater than 100 µM in the test with COLO 205 colon; 22.4 µM in the test on HOP-62 NSCLC; greater than 100 µM in the test on MCF7 breast; greater than 100 µM with SK-MEL-2 melanoma. In the test on SR leukemia, this compound gave a TGI of 5.26 µM.
